Test results published in article PMC10249358, “Elucidation of Short Linear Motif-Based Interactions of the FERM Domains of Ezrin, Radixin, Moesin, and Merlin” (Biochemistry, 2023).
One block for each substance: values may come before it. No end group written: not given here.

What was measured:
moesin FERM domain [1] = molecular target: T1, moesin FERM domain (Homo sapiens, UniProt P26038); assay: Competitive FP assay, unlabeled peptide outcompetes FITC-labeled probe; format: binding
T1 construct: pGEX4T Moesin (P26038) FERM was a gift from Vijaya Ramesh (Addgene plasmid # 1163); GST (N, cleaved yes); made in house; host or cells: E. coli BL21(DE3)
T1 sequence (P26038 2-295 limits assumed): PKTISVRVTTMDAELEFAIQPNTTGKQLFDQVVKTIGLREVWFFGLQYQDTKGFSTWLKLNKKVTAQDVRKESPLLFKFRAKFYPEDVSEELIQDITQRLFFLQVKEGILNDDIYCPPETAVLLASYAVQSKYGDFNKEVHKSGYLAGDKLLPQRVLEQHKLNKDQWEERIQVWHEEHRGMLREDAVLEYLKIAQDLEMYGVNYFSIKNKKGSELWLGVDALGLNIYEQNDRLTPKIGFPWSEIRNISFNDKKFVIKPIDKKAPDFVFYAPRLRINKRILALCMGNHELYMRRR
Procedure: (§1) 25 μL of this premix was added to 25 μL of titrated target peptide. FP signals were determined as described earlier. […] All measurements were performed at least in triplicates.

merlin FERM domain = molecular target: T2, merlin FERM domain (Homo sapiens, UniProt P35240); assay: Direct binding fluorescence polarization (FP) assay, FITC-labeled probe peptides; settings: FITC-labeled probe peptide 5 nM titrated with FERM domain, 20 mM HEPES pH 7.4, 150 mM NaCl, 0.05% Tween-20, 3 mM DTT, quadratic 1:1 fit, n = 3 technical repeats, N.B. within the concentration range tested
T2 construct: human merlin FERM (P35240; amino acids 22–312); His-GST (N, cleaved yes); made in house; host or cells: E. coli BL21(DE3)
T2 sequence (P35240 22-312): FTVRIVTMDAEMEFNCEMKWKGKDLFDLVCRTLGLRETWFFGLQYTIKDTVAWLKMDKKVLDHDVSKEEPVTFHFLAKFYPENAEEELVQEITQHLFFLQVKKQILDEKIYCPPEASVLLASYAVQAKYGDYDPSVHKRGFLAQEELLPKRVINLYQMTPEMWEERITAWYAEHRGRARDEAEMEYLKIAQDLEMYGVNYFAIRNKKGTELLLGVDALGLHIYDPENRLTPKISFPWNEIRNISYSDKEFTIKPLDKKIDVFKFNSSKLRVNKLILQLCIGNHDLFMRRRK
Procedure: (§2) For fluorescence polarization (FP) experiments of merlin FERM, the GST tag was removed using HRV3C protease by incubating the enzyme (100 units/10 mg protein) with protein overnight at 4 °C in the dialysis buffer (20 mM HEPES, pH 7.4, 150 mM NaCl, 0.05% Tween-20, and 3 mM DTT). The following day, the cleaved GST and the protease were removed using reverse Ni-IMAC, and the protein was concentrated to the working concentration. For FP experiments using moesin FERM, thrombin (Sigma) was used to cleave the GST tag from moesin FERM domain on GSH sepharose beads (Cytiva) and incubated overnight at 4 °C under gentle rotation. Next day, the beads were collected by gentle centrifugation, while the supernatant containing thrombin and moesin FERM domain was passed through a HiTrap benzamidine column (Cytiva). The protein was then eluted using a high salt (0.7–1 M NaCl) concentration. The buffer was then exchanged using the PD-10 desalting column (Cytiva) into FP buffer (20 mM HEPES, pH 7.4, 150 mM NaCl, 0.05% Tween-20, and 3 mM DTT).
(§3) Synthetic peptides were obtained at 95% purity (GeneCust) and were dissolved in FP buffer (described earlier). To obtain direct binding saturation data, a dilution series of moesin FERM domain was prepared using the FP buffer, and then an equal volume of 10 nM FITC-labeled peptide was added to each sample. After mixing, the FP signals were recorded using SpectraMax iD5 (Molecular Devices). Data were analyzed with GraphPad Prism version 7.0.0 for MacOS (GraphPad Software, San Diego, California USA). A quadratic equation for equilibrium binding[37] was used to fit the obtained data. [drawing 1] where pept indicates the probe peptide concentration (5 nM), X indicates the protein concentration, the constant A being the signal amplitude divided by probe peptide concentration, and B is the plateau value. Direct binding experiments were performed and analyzed the same way in the presence of saturating concentration of unlabeled peptides.

moesin FERM domain [2] = molecular target: T1, moesin FERM domain; assay: Direct binding FP in the presence of saturating concentration of unlabeled competing peptide
Procedure: as §3
We next explored the interplay between the F3a and F3b ligands by determining the affinity of FITC-labeled model peptides in the presence of high concentrations of the competing ligands (Figure 6A,B). […] The asymmetric competition could potentially be explained by an allosteric model where binding to the F3a site induces a conformational change of the protein that reduces the affinity for F3b ligands.

radixin FERM domain = molecular target: T3, radixin FERM domain (Homo sapiens, UniProt P35241); assay: Competitive FP assay, unlabeled peptide outcompetes FITC-labeled probe; format: binding; settings: competition FP, unlabeled peptide vs FITC-KIRREL3 probe; at least triplicates
T3 construct: radixin FERM (P35241; 5–295) domains were commercially synthesized; His-GST (N); made in house; host or cells: E. coli BL21(DE3)
T3 sequence (P35241 5-295): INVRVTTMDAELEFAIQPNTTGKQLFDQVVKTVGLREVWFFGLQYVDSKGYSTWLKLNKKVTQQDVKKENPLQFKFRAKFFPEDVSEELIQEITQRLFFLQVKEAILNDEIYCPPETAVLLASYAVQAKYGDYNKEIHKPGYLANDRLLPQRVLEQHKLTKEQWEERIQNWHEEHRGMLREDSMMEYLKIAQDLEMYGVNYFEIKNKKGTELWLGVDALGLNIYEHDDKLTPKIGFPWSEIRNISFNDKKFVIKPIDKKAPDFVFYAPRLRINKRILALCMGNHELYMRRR
Procedure: as §1

moesin FERM M285A/H288A = molecular target: T4, moesin FERM M285A/H288A (Homo sapiens, UniProt P26038, H288A/M285A); assay: Direct binding FP assay with F3b-site mutant; settings: direct binding of FITC-labeled probe; Table S7
T4 construct: we generated a mutant moesin FERM domain (M285A and H288A); GST (N, cleaved yes); made in house; host or cells: E. coli BL21(DE3)
T4 sequence (P26038 2-295 M285A/H288A limits assumed): as the sequence (P26038 2-295 limits assumed) above, with M284A, H287A counted along it
Description: Synthetic genes encoding for human merlin FERM (P35240; amino acids 22–312) and radixin FERM (P35241; 5–295) domains were commercially synthesized (ThermoFisher) and cloned into pETM33 using NcoI and EcoRI restriction sites. pGEX4T Moesin (P26038) FERM was a gift from Vijaya Ramesh (Addgene plasmid # 1163[27]). pGEX4T1 Ezrin (P15311) FERM domain was a kind gift from Volker Gerke.[28] Human NOP53-HA-pcDNA was a kind gift from Ronit Sarid.[29] The NOP53 gene was polymerase chain reaction (PCR)-amplified and cloned into CMV10 using HindIII and EcoRI. RRBP1-GFP was kindly provided by Alexander F. Palazzo.[30] HA-HIF1-alpha-pcDNA3 was a gift from William Kaelin (Addgene plasmid # 18949[31]). pcDNA3 LATS1 was a gift from Erich Nigg (Addgene plasmid # 41156[32]). […]
Synthetic peptides were obtained at 95% purity (GeneCust) and were dissolved in FP buffer (described earlier). […] After mixing, the FP signals were recorded using SpectraMax iD5 (Molecular Devices). Data were analyzed with GraphPad Prism version 7.0.0 for MacOS (GraphPad Software, San Diego, California USA). […] Direct binding experiments were performed and analyzed the same way in the presence of saturating concentration of unlabeled peptides.
To validate the models on the receptor side, we generated a mutant moesin FERM domain (M285A and H288A) and determined the effect on the affinity. […]

moesin FERM domain [3] = molecular target: T1, moesin FERM domain; assay: Direct binding fluorescence polarization (FP) assay, FITC-labeled probe peptides; settings: FITC-labeled probe peptide 5 nM titrated with FERM domain, 20 mM HEPES pH 7.4, 150 mM NaCl, 0.05% Tween-20, 3 mM DTT, quadratic 1:1 fit, n = 3 technical repeats
Procedure: as §2, §3

[4] = competitive FP using WT FITC-labeled ZNF622 as probe, Figure 5D, read-out: KD' (moesin FERM, ZNF622 peptide variants)
[5] = competitive FP using FITC-KIRREL3_637–652 as probe, Figure 4G, read-out: KD' (moesin FERM, KIRREL3 and TBX4 peptide variants)
[6] = moesin FERM, unlabeled peptide at about 100 times KD (80–150 μM)
[7] = direct binding FP in presence of excess unlabeled KIRREL3 (80 μM), Figure 6E, read-out: KD of FITC-labeled probe for moesin FERM, saturating peptide KIRREL3
[8] = direct binding FP in presence of excess unlabeled TBX4 (80 μM), Figure 6F, read-out: KD of FITC-labeled probe for moesin FERM, saturating peptide TBX4

Substance: LEFADAYDFRSSYPDH
- Kd (moesin FERM domain [1]; [4]): 85000 ± 2000 nM

Substance: SYSVQTMETVPYQPFP [TBX4_428–443]
- Kd (moesin FERM domain [1]; [5]): 1000 ± 100 nM
- KD, merlin FERM domain (merlin FERM domain): N.B.

Substance: LEFADFYDFRSSAPDH
- Kd (moesin FERM domain [1]; [4]): 2800 ± 100 nM

Substance: LYTLPDDSTHQLLQPH [BOC1000–1015]
- Kd (radixin FERM domain): 17000 ± 2000 nM

Substance: TNGAYSVNTFKEHHST
- Kd (moesin FERM domain [1]; [5]): 110 ± 10 nM

Substance: TNGYASVNTFKEHHST
- Kd (moesin FERM domain [1]; [5]): 58000 ± 5000 nM

Substance: YYSVNTFKEHHSTPTI [KIRREL3_637–652]
- KD, merlin FERM domain (merlin FERM domain): N.B.

Substance: APQMDWSKKNELFSNL [EBP50_343–358, reference compound]
- Kd (moesin FERM domain [3]): 3000 ± 300 nM
- Kd (moesin FERM domain [2]; [7]): 3300 ± 200 nM
- Kd (moesin FERM domain [2]; [8]): 3400 ± 200 nM

Now from value to substance:

- Kd (moesin FERM domain [1]; competition FP, determined using FITC-ZNF622 as the probe peptide (footnote b), read-out: moesin KD′): 3000 ± 400 nM
Substance: FYELAHQLPLPHNVSS [HIF1A37–52]

- effect of excess unlabeled peptide on binding of FITC-EBP50 / FITC-ZNF622 to the F3a site (moesin FERM domain [2]; [6]): not binding
- effect of excess unlabeled peptide on binding of FITC-KIRREL3 / FITC-TBX4 to the F3b site (moesin FERM domain [2]; [6]): blocked binding
Substance: KIRREL3_634–652: unlabeled F3b ligand used at 80 μM as saturating competitor; residue range as printed (TNGYYSVNTFKEHHSTPTI)

- Kd (moesin FERM domain [1]; [4]): 50000 ± 2000 nM
Substance: LEFADFYAFRSSYPDH

- Kd (moesin FERM M285A/H288A): 1300 ± 100 nM
- Kd (moesin FERM domain [3]): 1000 ± 100 nM
Substance: THHKALQEIRNSLLPF [LATS1_73–88, reference compound]

- Kd (moesin FERM domain [1]; [4]): 2300 ± 100 nM
Substance: LEAADFYDFRSSYPDH

- Kd (moesin FERM domain [1]; read-out: moesin KD′): 2300 ± 100 nM
Substance: ITGSYSVSESPFFSPI [MISP595–610]

- Kd (moesin FERM domain [1]; [5]): 50000 ± 6000 nM
Substance: TNGYYSANTFKEHHST

- Kd (moesin FERM domain [1]; [5]): 100 ± 10 nM
Substance: TNGYYSVNTFKEHHST

- Kd (moesin FERM domain [1]; [4]): 1400 ± 100 nM
- Kd (moesin FERM M285A/H288A): 1300 ± 100 nM
- Kd (moesin FERM domain [3]): 1000 ± 100 nM
- Kd (moesin FERM domain [2]; [7]): 1400 ± 100 nM
- Kd (moesin FERM domain [2]; [8]): 1300 ± 200 nM
Substance: LEFADFYDFRSSYPDH [ZNF622_341–356]
